{"source": "paper PMC4565635", "about": "“6-Shogaol Inhibits Breast Cancer Cells and Stem Cell-Like Spheroids by Modulation of Notch Signaling Pathway and Induction of Autophagic Cell Death” (PLoS ONE, 2015)", "key": {"[1]": {"tested_on": "MCF-7 spheroid", "assay": "MTT cytotoxicity assay, spheroids", "format": "cell-based, human", "settings": "for IC50: MTT, 48 hours, drug added three days after seeding", "description": "(§1) To check the effect of different drugs on the viability of spheroids, cells were seeded at 2.5×10^4 cells/well in 24-well ultra-low attachment plates and grown as spheroids. After 3 days, 6-shogaol (1–100 μM) or taxol (5 nM-50 μM) or curcumin (2–50 μM) was added to the wells and MTT assay was performed as explained above. Standard deviation was calculated from three independent experiments and the data were represented as the average of three experiments."}, "[2]": {"tested_on": "MDA MB-231 spheroid", "assay": "MTT cytotoxicity assay, spheroids", "format": "cell-based, human", "settings": "for IC50: MTT, 48 hours, drug added three days after seeding", "description": "as §1"}, "[3]": {"tested_on": "MCF-7 monolayer cells", "assay": "MTT cytotoxicity assay, monolayer", "format": "cell-based, human", "settings": "drug added one day after seeding", "description": "(§2) Monolayer cells (5×10^3cells/well) were seeded in quadruplicates in 96 well plates and were incubated with varying concentrations of 6-shogaol (1–100 μM), taxol (0.2–100 nM) or curcumin (4–80 μM). The effect of the drugs on the viability of all the cell lines was quantified by MTT (3-[4,5-dimethylthiazol-2-yl]-2,5 diphenyltetrazolium bromide) assay at different time points after drug treatment using a Biorad Plate reader. The IC50 values were calculated from the plot of percentage cell viability versus concentration of drug using the nonlinear regression programme of Origin."}, "[4]": {"tested_on": "MDA-MB-231 monolayer cells", "assay": "MTT cytotoxicity assay, monolayer", "format": "cell-based, human", "settings": "drug added one day after seeding", "description": "as §2"}, "[5]": {"tested_on": "HaCaT cells", "assay": "MTT cytotoxicity assay, noncancerous cells", "format": "cell-based, human", "settings": "48 hours", "description": "as §2"}, "[6]": {"tested_on": "HEK 293 cells", "assay": "MTT cytotoxicity assay, noncancerous cells", "format": "cell-based, human", "description": "as §2"}, "[7]": {"tested_on": "LC3-II in MCF7 cells", "assay": "Western blot of LC3-II expression", "format": "cell-based, human", "settings": "48 hours", "description": "Lysates were placed into ice for 1 hour to ensure complete lysis followed by centrifugation at 14,000 g for 10 minutes and the supernatant was collected. Proteins were subjected to SDS-PAGE and transferred to polyvinylidene fluoride membrane. The membranes were blocked and incubated overnight with primary antibodies at 4°C followed by incubation with horseradish peroxidase tagged secondary antibodies. The blots were developed using ECL reagent. The primary antibodies were used in the following dilutions: Cleaved Notch1 (1:2000), Hes1 (1:200), Cyclin D1 (1:400), PARP (1:500 for sc) and (1:1000 for CST), LC3A/B (1:500), Bcl-2 (1:1000), Bax (1:1000) and β-actin (1:2000). β-actin was used as loading controls.\nDensitometry was conducted for all the western blots using […] software (Bio-Rad). Normalisation was done according to the loading control and fold change was calculated with respect to the control. For graphs, results are depicted as mean ± standard error of mean or standard deviation (calculated from two or more experiments). The p-values were obtained using Student’s unpaired t-test and p < 0.05 was considered to be statistically significant."}, "[8]": {"tested_on": "breast cancer spheroids", "assay": "Apoptosis detection in spheroids", "format": "cell-based, human", "settings": "40 μM, upto 72 or 96 hours"}, "[9]": {"tested_on": "breast cancer spheroids (CD44+CD24-/low cells)", "assay": "Flow cytometric analysis of cell surface markers CD44/CD24", "format": "cell-based, human", "settings": "40 μM, 18 hours; untreated 27.3%", "description": "Monolayer cells or spheroids (with or without treatment of 6-shogaol) were dispersed by trypsin-EDTA. Cells were then pelleted down by centrifugation at 1600 rpm for 5 minutes at 4°C and resuspended in 1 ml of DMEM containing 2% FBS. Fluorescein isothiocyanate (FITC)-conjugated CD24 monoclonal antibody and phycoerythrin (PE)-conjugated CD44 monoclonal antibody (BD Biosciences) were added in 1:100 dilution and incubated on ice for 45 minutes in dark. The cells were then analyzed by flow cytometer (BD FACS Aria II) for the expression of CD24 and CD44."}, "[10]": {"tested_on": "MCF-7 spheroids", "assay": "Primary sphere formation", "format": "cell-based, human", "description": "(§3) 5000 cells/well were seeded in ultra low attachment plates. After 3 days of seeding, the spheres formed were kept with different concentrations of 6-shogaol and/or 25 μM DAPT for 7 days and the number of spheres were counted under the microscope. These primary spheres were dispersed and kept in fresh media without any treatment and counted again after 7 days to check the ability to regrow into secondary spheres. Control primary spheres were also processed similarly for comparison. Spheres were counted in Olympus IX71 microscope using 10X objective."}, "[11]": {"tested_on": "MCF-7 cells", "assay": "Annexin V/PI flow-cytometric apoptosis assay", "format": "cell-based, human", "settings": "25 μM, 48 hours", "description": "Apoptosis was quantified by using a FITC Annexin V Apoptosis Detection kit according to manufacturer’s instructions. MCF-7 cells were treated with 15 μM and 25 μM of 6-shogaol for 24, 48 and 72 hours, respectively. Attached and floating cells were collected and analyzed by a flow cytometer (BD FACS Aria II)."}, "[12]": {"tested_on": "MRC5, NP69, HaCaT and HMEC", "parameters": "method as in PMID 23612072", "settings": "cited from earlier work"}, "[13]": {"tested_on": "MCF-7 spheroid", "assay": "Cell cycle analysis by flow cytometry (propidium iodide)", "format": "cell-based, human", "settings": "25 μM, 48 hours; control 24%", "description": "(§4) Cell cycle distribution of cells treated with 6-shogaol was analyzed by flow cytometric measurement of cellular DNA content. MCF-7 cells (5×10^5 cells/well) were subjected to 6-shogaol treatment for various time points. Culture media containing detached cells were collected and attached cells were trypsinized. Cells were pelleted, fixed in 70% (v/v) ethanol and stored at 4°C. In case of spheroids, cells were treated with different concentrations of 6-shogaol for 48 hours and fixed for further analysis. Before analysis, cells were re-washed with PBS and incubated with 10 μg/ml RNaseA and 400 μg/ml propidium iodide for 30 minutes at 37°C. Data were analyzed using FACS Diva software."}, "[14]": {"tested_on": "MCF-7 monolayer", "assay": "Cell cycle analysis by flow cytometry (propidium iodide)", "format": "cell-based, human", "settings": "16 μM (2×IC50), control 29%", "description": "as §4"}, "[15]": {"tested_on": "MCF-7 spheroids", "assay": "Secondary sphere formation", "format": "cell-based, human", "settings": "for inhibition of secondary spheroid colonies: regrown 1 week without compound", "description": "as §3"}, "[16]": {"tested_on": "MCF-7 cells", "assay": "DAPI staining for apoptosis (chromatin condensation)", "format": "cell-based, human", "settings": "25 μM", "description": "Cells were seeded on cover slips. […] Cells were washed with PBS, fixed with Methanol-EDTA for 10 minutes at -20°C followed by rehydration with PBS at room temperature and incubated with 1 μg/ml DAPI. Mounted coverslips were visualised at 40X magnification under fluorescence microscope (Olympus IX71). Apoptotic cells were counted from five different fields."}}}
{"smiles": "CC(=O)O[C@H]1C(=O)[C@@]2(C)[C@H]([C@H](OC(=O)c3ccccc3)[C@]3(O)C[C@H](OC(=O)[C@H](O)[C@@H](NC(=O)c4ccccc4)c4ccccc4)C(C)=C1C3(C)C)[C@]1(OC(C)=O)CO[C@@H]1C[C@@H]2O", "note": "[Taxol, reference compound]", "values": [{"measurement": "IC50", "setting": "[1]; Homo sapiens, MCF7", "result": "> 50", "unit": "µM"}, {"measurement": "IC50", "setting": "[2]; Homo sapiens, MDA-MB-231", "result": "> 20", "unit": "µM"}, {"measurement": "IC50", "setting": "[3]; Homo sapiens, MCF7, 48 hours", "result": "0.00492 ± 0.00071", "unit": "µM"}, {"measurement": "IC50", "setting": "[4]; Homo sapiens, MDA-MB-231, 48 hours", "result": "0.00286 ± 0.00066", "unit": "µM"}, {"measurement": "IC50", "setting": "[5]; Homo sapiens, HaCaT", "result": "0.0427 ± 0.00075", "unit": "µM"}, {"measurement": "IC50", "setting": "[6]; Homo sapiens, HEK293, 48 hours", "result": "0.1038 ± 0.00048", "unit": "µM"}]}
{"smiles": "COc1cc(/C=C/C(=O)CC(=O)/C=C/c2ccc(O)c(OC)c2)ccc1O", "note": "[Curcumin, curcumin]", "values": [{"measurement": "IC50", "setting": "[1]; Homo sapiens, MCF7", "result": "7.27 ± 0.54", "unit": "µM"}, {"measurement": "IC50", "setting": "[3]; Homo sapiens, MCF7, 48 hours", "result": "37.1 ± 0.85", "unit": "µM"}, {"measurement": "IC50", "setting": "[5]; Homo sapiens, HaCaT", "result": "10.4 ± 0.87", "unit": "µM"}, {"measurement": "IC50", "setting": "[6]; Homo sapiens, HEK293, 48 hours", "result": "23.1 ± 0.68", "unit": "µM"}]}
{"smiles": "CCCCC/C=C/C(=O)CCc1ccc(O)c(OC)c1", "note": "[6-shogaol]", "values": [{"measurement": "fold increase in LC3-II expression", "setting": "[7]; 5 μM 6-shogaol alone, relative to control", "result": 1.8, "unit": "fold"}, {"measurement": "fold increase in LC3-II expression", "setting": "[7]; 5 μM 6-shogaol in combination with low concentration of chloroquine", "result": 3.3, "unit": "fold"}, {"measurement": "fold increase in LC3-II expression", "setting": "[7]; 15 μM 6-shogaol alone, relative to control", "result": 2.1, "unit": "fold"}, {"measurement": "fold increase in LC3-II expression", "setting": "[7]; 15 μM 6-shogaol in combination with low concentration of chloroquine", "result": 3.43, "unit": "fold"}, {"measurement": "apoptosis in breast cancer spheroids", "setting": "[8]", "result": "not able to detect appreciable amount of apoptosis"}, {"measurement": "percentage of CD44+CD24-/low cells (Q1)", "setting": "[9]", "result": 2.3, "unit": "%"}, {"measurement": "reduction of number of primary spheroid colonies", "setting": "[10]; 1 μM, 7 days", "result": 2, "unit": "fold"}, {"measurement": "average number of spheroid colonies (primary)", "setting": "[10]; 1 μM, 7 days continuous treatment, control 96", "result": 48, "unit": "colonies"}, {"measurement": "inhibition of primary spheroid colonies", "setting": "[10]; 40 μM, 7 days", "result": 24, "unit": "fold"}, {"measurement": "number of spheroid colonies (primary)", "setting": "[10]; 40 μM, 7 days continuous treatment, control 96", "result": 4, "unit": "colonies"}, {"measurement": "inhibition of cell viability", "setting": "[1]; 10 μM, after 6 days", "result": 46, "unit": "%"}, {"measurement": "inhibition of cell viability", "setting": "[1]; 10 μM, day 4", "result": "~ 35%"}, {"measurement": "inhibition of cell viability", "setting": "[1]; 20 μM, day 4", "result": 56, "unit": "%"}, {"measurement": "inhibition of cell viability", "setting": "[1]; 40 μM, day 4", "result": 83, "unit": "%"}, {"measurement": "effective concentration in spheroids versus monolayer cells", "setting": "[1]; MCF-7 spheroids vs MCF-7 monolayer", "result": 5, "unit": "fold"}, {"measurement": "IC50", "setting": "[1]", "result": "39.5 ± 0.62", "unit": "µM"}, {"measurement": "effective concentration in spheroids versus monolayer cells", "setting": "[2]; MDA-MB-231 spheroids vs MDA-MB-231 monolayer", "result": 2, "unit": "fold"}, {"measurement": "IC50", "setting": "[2]", "result": "11.2 ± 0.83", "unit": "µM"}, {"measurement": "potency against MDA-MB-231 spheroids versus MCF-7 spheroids", "setting": "[2]; more potent against MDA-MB-231 spheroids", "result": "~ 3 fold"}, {"measurement": "early apoptotic cells (Annexin positive/PI negative)", "setting": "[11]", "result": 11, "unit": "%"}, {"measurement": "IC50", "setting": "[3]; 48 hours", "result": "7.94 ± 0.57", "unit": "µM"}, {"measurement": "IC50", "setting": "[4]; 48 hours", "result": "5.67 ± 0.73", "unit": "µM"}, {"measurement": "IC50", "setting": "[5]", "result": "103.8 ± 0.67", "unit": "µM"}, {"measurement": "IC50", "setting": "[6]; 48 hours", "result": "69.97 ± 0.52", "unit": "µM"}, {"measurement": "toxicity to normal cells", "setting": "[12]", "result": "not toxic"}, {"measurement": "percentage of cells in G2/M", "setting": "[13]", "result": 42, "unit": "%"}, {"measurement": "percentage of cells in G2/M", "setting": "[14]; 24h", "result": 48, "unit": "%"}, {"measurement": "percentage of cells in G2/M", "setting": "[14]; 48h", "result": 55, "unit": "%"}, {"measurement": "secondary sphere formation", "setting": "[15]; concentrations above 10 μM", "result": "Not a single secondary sphere was found"}, {"measurement": "inhibition of secondary spheroid colonies", "setting": "[15]; primary spheroids treated with 1 μM for 1 week, control ~55 colonies", "result": 71, "unit": "%"}, {"measurement": "inhibition of secondary spheroid colonies", "setting": "[15]; primary spheroids treated with 5 μM for 1 week", "result": 80, "unit": "%"}, {"measurement": "inhibition of secondary spheroid colonies", "setting": "[15]; primary spheroids treated with 10 μM for 1 week", "result": 94.5, "unit": "%"}, {"measurement": "apoptosis as measured by chromatin condensation", "setting": "[16]; 48 hours", "result": 19, "unit": "%"}, {"measurement": "apoptosis as measured by chromatin condensation", "setting": "[16]; 72 hours", "result": 28, "unit": "%"}]}
